#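 All cell lines were grown in 96-well plates and treated with compound for 48 hours. GI50 = concentration required for 50% inhibition of growth. TGI marks complete inhibition of growth.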
# Columns and labels:
# Test in all cases: growth of human tumour cells (NCI), 48 h
# ACHN renal = system: ACHN renal
# NCI-H460 lung = system: NCI-H460 lung
# BT-549 breast = system: BT-549 breast
# NCI-H23 lung = system: NCI-H23 lung
# MOLT-4 leukemia = system: MOLT-4 leukemia
# T-47D breast = system: T-47D breast
# SNB-19 CNS = system: SNB-19 CNS
# SK-MEL-28 melanoma = system: SK-MEL-28 melanoma
# NCI-H522 lung = system: NCI-H522 lung
# SR leukemia = system: SR leukemia
# UACC-257 melanoma = system: UACC-257 melanoma
# SNB-75 CNS = system: SNB-75 CNS
# A498 renal = system: A498 renal
# M14 melanoma = system: M14 melanoma
# IGROV1 ovarian = system: IGROV1 ovarian
# U251 CNS = system: U251 CNS
# HCT-15 colon = system: HCT-15 colon
# OVCAR-4 ovarian = system: OVCAR-4 ovarian
# HOP-62 NSCLC = system: HOP-62 NSCLC
# LOX IMVI melanoma = system: LOX IMVI melanoma
# UO-31 renal = system: UO-31 renal
# HCT-116 colon = system: HCT-116 colon
# SF-295 CNS = system: SF-295 CNS
# SW-620 colon = system: SW-620 colon
# HOP-92 NSCLC = system: HOP-92 NSCLC
# SF-268 CNS = system: SF-268 CNS
# DU-145 prostate = system: DU-145 prostate
# KM12 colon = system: KM12 colon
# MCF7 breast = system: MCF7 breast
compound,measurement,setting,value
C[C@]12CC[C@@H]3c4ccc(O)cc4CC[C@H]3[C@@H]1CC[C@@H]2NS(=O)(=O)c1cccc(OC(F)(F)F)c1,TGI,ACHN renal,6.7 µM
same,GI50,NCI-H460 lung,1.89 µM
same,TGI,NCI-H460 lung,3.71 µM
same,GI50,BT-549 breast,1.97 µM
same,TGI,BT-549 breast,3.66 µM
same,GI50,NCI-H23 lung,2.08 µM
same,TGI,NCI-H23 lung,4.87 µM
same,GI50,MOLT-4 leukemia,2.63 µM
same,TGI,MOLT-4 leukemia,12.1 µM
same,GI50,T-47D breast,2.14 µM
same,TGI,T-47D breast,5.18 µM
same,GI50,SNB-19 CNS,3.46 µM
same,TGI,SNB-19 CNS,16.1 µM
same,GI50,SK-MEL-28 melanoma,1.76 µM
same,TGI,SK-MEL-28 melanoma,3.23 µM
same,GI50,NCI-H522 lung,2.23 µM
same,TGI,NCI-H522 lung,5.42 µM
same,GI50,SR leukemia,3.37 µM
same,TGI,SR leukemia,9.92 µM
same,GI50,UACC-257 melanoma,2.16 µM
same,TGI,UACC-257 melanoma,6.5 µM
same,GI50,SNB-75 CNS,1.67 µM
same,TGI,SNB-75 CNS,4.32 µM
same,GI50,A498 renal,1.23 µM
same,TGI,A498 renal,2.79 µM
same,GI50,M14 melanoma,2.2 µM
same,TGI,M14 melanoma,4.89 µM
same,GI50,IGROV1 ovarian,3.44 µM
same,TGI,IGROV1 ovarian,9.19 µM
same,GI50,U251 CNS,2.54 µM
same,TGI,U251 CNS,6.94 µM
same,GI50,HCT-15 colon,1.65 µM
same,TGI,HCT-15 colon,3.76 µM
same,GI50,OVCAR-4 ovarian,1.85 µM
same,TGI,OVCAR-4 ovarian,4.69 µM
same,GI50,HOP-62 NSCLC,1.99 µM
same,TGI,HOP-62 NSCLC,3.59 µM
same,GI50,LOX IMVI melanoma,1.77 µM
same,TGI,LOX IMVI melanoma,3.17 µM
same,GI50,UO-31 renal,1.83 µM
same,TGI,UO-31 renal,5.46 µM
same,GI50,HCT-116 colon,1.84 µM
same,TGI,HCT-116 colon,3.53 µM
same,GI50,SF-295 CNS,1.58 µM
same,TGI,SF-295 CNS,3 µM
same,GI50,SW-620 colon,3.34 µM
same,TGI,SW-620 colon,12.6 µM
same,GI50,HOP-92 NSCLC,1.44 µM
same,TGI,HOP-92 NSCLC,3.95 µM
same,GI50,SF-268 CNS,3.18 µM
same,TGI,SF-268 CNS,13.6 µM
same,GI50,DU-145 prostate,3.83 µM
same,TGI,DU-145 prostate,12.1 µM
same,GI50,KM12 colon,2.01 µM
same,TGI,KM12 colon,4.08 µM
same,GI50,MCF7 breast,1.47 µM
same,TGI,MCF7 breast,3.36 µM
